Assay results taken from US10005754B2, “Form of spirodiclofen, a process for its preparation and use the same” (priority 2015, dated 2018).

Assay: Comparison of storage stability of suspension concentrates (CIPAC MT 46.3)
Type: physicochemical
Protocol: Samples prepared in Examples 4 and 5 were stored at 54° C. for 1 month, 3 months and 6 months. The procedures are followed according to CIPAC MT 46.3. The concentration of spirodiclofen was measured at the end of each storage time by HPLC. The aggregation was measured by observation. The original concentration of spirodiclofen in each formulation was 25%.

Row | Structure (SMILES) | storage stability / aggregation after prolong storage (listed as spirodiclofen in amorphous state) | storage stability / aggregation after prolong storage (listed as crystalline modification I of spirodiclofen)
1 | CCC(C)(C)C(=O)OC1=C(c2ccc(Cl)cc2Cl)C(=O)OC12CCCCC2 [Example 1, 3-(2,4-dichlorophenyl)-2-oxo-1-oxaspiro[4.5]dec-3-en-4-yl-2,2-dimethyl butyrate] | high tendency of aggregation | 
2 | CCC(C)(C)C(=O)OC1=C(c2ccc(Cl)cc2Cl)C(=O)OC12CCCCC2 [Example 2, 3-(2,4-dichlorophenyl)-2-oxo-1-oxaspiro[4.5]dec-3-en-4-yl-2,2-dimethyl butyrate] |  | significant improvement in its stability without aggregation
